Results on one compound are retold here after paper PMC7506137, “Selective Phosphodiesterase 1 Inhibitor BTTQ Reduces Blood Pressure in Spontaneously Hypertensive and Dahl Salt Sensitive Rats: Role of Peripheral Vasodilation” (Frontiers in Physiology, 2020).

For the data set, the system named is Spontaneous Hypertensive rats (SHR). Put plainly: Rat telemetry, blood pressure and heart rate. The format is in vivo. To be noted: 3 mg/kg enalapril alone, twice daily oral, SHR. The source says:
Male Sprague Dawley (Taconic Biosciences) rats, Spontaneous Hypertensive rats (Charles River Laboratories, United States), and Dahl Salt Sensitive rats (Medical College of Wisconsin) were implanted with transmitters (HD S10; Data Science International) for collection of BP and heart rate (HR) data. The transmitters are capable of transmitting a BP signal via a pressure catheter inserted into the abdominal aorta. Initially, a baseline was established and recorded. Each rat was then removed from its recording cage and was dosed by p.o. gavage with vehicle or compound and the animals were then returned to the recording cage. Data sampling for BP and HR was carried out in intervals at selected time points for the duration of the experiment.
All data in this manuscript were presented as mean ± SEM with a significance level of p < 0.05, and n represents the number of individual animals. The significance of differences in concentration-response curves in the ear temperature and, myograft study were calculated using t-test, compare to the vehicle group. The EC50 was calculated using GraphPad Prism 8.3 using a 4-parameter logistic non-linear curve fit model. Single-dose rat telemetry data for normal and SHR rats and repeat-dose telemetry data in Dahls salt-sensitive rats were analyzed by two-way repeated measures ANOVA. Treatment group main effects were compared by Tukey’s HSD method. All telemetry data were analyzed with GraphPad Prism 8.3.

On to `CCOC(=O)[C@H](CCc1ccccc1)N[C@@H](C)C(=O)N1CCC[C@H]1C(=O)O` [enalapril, reference compound], for which the heart rate entry is recorded as “without affecting the heart rate” and the “lowering of MAP” value is given as 13%.
